# Tested on: 171881-019-R-J1-PDC multicell spheroid viability
# Test: Anticancer human tumor 171881-019-R-J1-PDC patient-derived invasive breast carcinoma cell line growth inhibition [IpAb]
# Details: for IC50: curve of first compound; for viability, T/C: stronger effect = lower value
# Summary of the method: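 Spheroids of 60% malignant cells, 25% HUVEC and 15% MSC were exposed to targeted agents combined with ipatasertib or abemaciclib. Doses started at or near clinical Cmax (10 microM when unknown) and fell in half-log steps.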
# [1] = second compound 0.01 µM, first compound 0.0316 µM
# [2] = second compound 0.01 µM, first compound 0.1 µM
# [3] = second compound 0.01 µM, first compound 0.316 µM
# [4] = second compound 0.01 µM, first compound 1 µM
# [5] = second compound 0.01 µM, first compound 3.16 µM
# [6] = second compound 0.01 µM, first compound 10 µM
# [7] = second compound 0.0316 µM, first compound 0.0316 µM
# [8] = second compound 0.0316 µM, first compound 0.1 µM
# [9] = second compound 0.0316 µM, first compound 0.316 µM
# [10] = second compound 0.0316 µM, first compound 1 µM
# [11] = second compound 0.0316 µM, first compound 3.16 µM
# [12] = second compound 0.0316 µM, first compound 10 µM
# [13] = second compound 0.1 µM, first compound 0.0316 µM
# [14] = second compound 0.1 µM, first compound 0.1 µM
# [15] = second compound 0.1 µM, first compound 0.316 µM
# [16] = second compound 0.1 µM, first compound 1 µM
# [17] = second compound 0.1 µM, first compound 3.16 µM
# [18] = second compound 0.1 µM, first compound 10 µM
# [19] = second compound 0.316 µM, first compound 0.0316 µM
# [20] = second compound 0.316 µM, first compound 0.1 µM
# [21] = second compound 0.316 µM, first compound 0.316 µM
# [22] = second compound 0.316 µM, first compound 1 µM
# [23] = second compound 0.316 µM, first compound 3.16 µM
# [24] = second compound 0.316 µM, first compound 10 µM
# [25] = second compound 1 µM, first compound 0.0316 µM
# [26] = second compound 1 µM, first compound 0.1 µM
# [27] = second compound 1 µM, first compound 0.316 µM
# [28] = second compound 1 µM, first compound 1 µM
# [29] = second compound 1 µM, first compound 3.16 µM
# [30] = second compound 1 µM, first compound 10 µM
# [31] = second compound 0.01 µM, first compound 0.00949 µM
# [32] = second compound 0.01 µM, first compound 0.03 µM
# [33] = second compound 0.01 µM, first compound 0.0949 µM
# [34] = second compound 0.01 µM, first compound 0.3 µM
# [35] = second compound 0.0316 µM, first compound 0.00949 µM
# [36] = second compound 0.0316 µM, first compound 0.03 µM
# [37] = second compound 0.0316 µM, first compound 0.0949 µM
# [38] = second compound 0.0316 µM, first compound 0.3 µM
# [39] = second compound 0.1 µM, first compound 0.00949 µM
# [40] = second compound 0.1 µM, first compound 0.03 µM
# [41] = second compound 0.1 µM, first compound 0.0949 µM
# [42] = second compound 0.1 µM, first compound 0.3 µM
# [43] = second compound 0.316 µM, first compound 0.00949 µM
# [44] = second compound 0.316 µM, first compound 0.03 µM
# [45] = second compound 0.316 µM, first compound 0.0949 µM
# [46] = second compound 0.316 µM, first compound 0.3 µM
# [47] = second compound 1 µM, first compound 0.00949 µM
# [48] = second compound 1 µM, first compound 0.03 µM
# [49] = second compound 1 µM, first compound 0.0949 µM
# [50] = second compound 1 µM, first compound 0.3 µM
# 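Note: spheroids exposed to the agents for seven days before readout.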
compound,measurement,setting,value
C=CC(=O)N1CCN(c2nc(=O)n(-c3c(C)ccnc3C(C)C)c3nc(-c4c(O)cccc4F)c(F)cc23)C(C)C1 (stereo not given) + CCN1CCN(Cc2ccc(Nc3ncc(F)c(-c4cc(F)c5nc(C)n(C(C)C)c5c4)n3)nc2)CC1,IC50,second compound 0.01 µM,8350 nM
same,IC50,second compound 0.0316 µM,9500 nM
same,IC50,second compound 0.1 µM,> 10000 nM
same,IC50,second compound 0.316 µM,> 10000 nM
same,IC50,second compound 1 µM,> 10000 nM
same,"viability, T/C",[1],103%
same,"viability, T/C",[2],90.1%
same,"viability, T/C",[3],89.5%
same,"viability, T/C",[4],94.8%
same,"viability, T/C",[5],97.5%
same,"viability, T/C",[6],41.6%
same,"viability, T/C",[7],99.1%
same,"viability, T/C",[8],94.1%
same,"viability, T/C",[9],104%
same,"viability, T/C",[10],90.6%
same,"viability, T/C",[11],91.5%
same,"viability, T/C",[12],47.7%
same,"viability, T/C",[13],117%
same,"viability, T/C",[14],128%
same,"viability, T/C",[15],114%
same,"viability, T/C",[16],108%
same,"viability, T/C",[17],105%
same,"viability, T/C",[18],49.7%
same,"viability, T/C",[19],136%
same,"viability, T/C",[20],132%
same,"viability, T/C",[21],132%
same,"viability, T/C",[22],131%
same,"viability, T/C",[23],114%
same,"viability, T/C",[24],59.7%
same,"viability, T/C",[25],148%
same,"viability, T/C",[26],148%
same,"viability, T/C",[27],149%
same,"viability, T/C",[28],143%
same,"viability, T/C",[29],127%
same,"viability, T/C",[30],76.6%
CC(=O)c1c(C)c2cnc(Nc3ccc(N4CCNCC4)cn3)nc2n(C2CCCC2)c1=O + CCN1CCN(Cc2ccc(Nc3ncc(F)c(-c4cc(F)c5nc(C)n(C(C)C)c5c4)n3)nc2)CC1,IC50,second compound 0.01 µM,> 300 nM
same,IC50,second compound 0.0316 µM,> 300 nM
same,IC50,second compound 0.1 µM,> 300 nM
same,IC50,second compound 0.316 µM,> 300 nM
same,IC50,second compound 1 µM,> 300 nM
same,"viability, T/C","second compound 0.01 µM, first compound 0.000949 µM",98%
same,"viability, T/C","second compound 0.01 µM, first compound 0.003 µM",90.7%
same,"viability, T/C",[31],77%
same,"viability, T/C",[32],94.4%
same,"viability, T/C",[33],105%
same,"viability, T/C",[34],107%
same,"viability, T/C","second compound 0.0316 µM, first compound 0.000949 µM",107%
same,"viability, T/C","second compound 0.0316 µM, first compound 0.003 µM",96.6%
same,"viability, T/C",[35],103%
same,"viability, T/C",[36],110%
same,"viability, T/C",[37],107%
same,"viability, T/C",[38],109%
same,"viability, T/C","second compound 0.1 µM, first compound 0.000949 µM",119%
same,"viability, T/C","second compound 0.1 µM, first compound 0.003 µM",109%
same,"viability, T/C",[39],115%
same,"viability, T/C",[40],117%
same,"viability, T/C",[41],115%
same,"viability, T/C",[42],112%
same,"viability, T/C","second compound 0.316 µM, first compound 0.000949 µM",120%
same,"viability, T/C","second compound 0.316 µM, first compound 0.003 µM",136%
same,"viability, T/C",[43],127%
same,"viability, T/C",[44],122%
same,"viability, T/C",[45],123%
same,"viability, T/C",[46],122%
same,"viability, T/C","second compound 1 µM, first compound 0.000949 µM",144%
same,"viability, T/C","second compound 1 µM, first compound 0.003 µM",143%
same,"viability, T/C",[47],142%
same,"viability, T/C",[48],142%
same,"viability, T/C",[49],140%
same,"viability, T/C",[50],132%
CC(C)(C)c1cnc(CSc2cnc(NC(=O)C3CCNCC3)s2)o1 + CCN1CCN(Cc2ccc(Nc3ncc(F)c(-c4cc(F)c5nc(C)n(C(C)C)c5c4)n3)nc2)CC1,IC50,second compound 0.01 µM,174 nM
same,IC50,second compound 0.0316 µM,182 nM
same,IC50,second compound 0.1 µM,191 nM
same,IC50,second compound 0.316 µM,196 nM
same,IC50,second compound 1 µM,185 nM
same,"viability, T/C",[31],104%
same,"viability, T/C",[32],93.6%
same,"viability, T/C",[33],114%
same,"viability, T/C",[34],5.39%
same,"viability, T/C","second compound 0.01 µM, first compound 0.949 µM",0.26%
same,"viability, T/C","second compound 0.01 µM, first compound 3 µM",0.29%
same,"viability, T/C",[35],110%
same,"viability, T/C",[36],99.8%
same,"viability, T/C",[37],121%
same,"viability, T/C",[38],3.9%
same,"viability, T/C","second compound 0.0316 µM, first compound 0.949 µM",0.25%
same,"viability, T/C","second compound 0.0316 µM, first compound 3 µM",0.36%
same,"viability, T/C",[39],116%
same,"viability, T/C",[40],125%
same,"viability, T/C",[41],138%
same,"viability, T/C",[42],0.81%
same,"viability, T/C","second compound 0.1 µM, first compound 0.949 µM",0.47%
same,"viability, T/C","second compound 0.1 µM, first compound 3 µM",0.46%
same,"viability, T/C",[43],132%
same,"viability, T/C",[44],126%
same,"viability, T/C",[45],141%
same,"viability, T/C",[46],1.4%
same,"viability, T/C","second compound 0.316 µM, first compound 0.949 µM",0.27%
same,"viability, T/C","second compound 0.316 µM, first compound 3 µM",0.57%
same,"viability, T/C",[47],148%
same,"viability, T/C",[48],143%
same,"viability, T/C",[49],118%
same,"viability, T/C",[50],1.51%
same,"viability, T/C","second compound 1 µM, first compound 0.949 µM",0.68%
same,"viability, T/C","second compound 1 µM, first compound 3 µM",1.06%
Cn1nccc1Nc1nccc(-c2ccn(C(CO)c3ccc(Cl)c(F)c3)c(=O)c2)n1 (stereo not given) + CCN1CCN(Cc2ccc(Nc3ncc(F)c(-c4cc(F)c5nc(C)n(C(C)C)c5c4)n3)nc2)CC1,IC50,second compound 0.01 µM,772 nM
same,IC50,second compound 0.0316 µM,810 nM
same,IC50,second compound 0.1 µM,929 nM
same,IC50,second compound 0.316 µM,1140 nM
same,IC50,second compound 1 µM,2970 nM
same,"viability, T/C",[1],117%
same,"viability, T/C",[2],112%
same,"viability, T/C",[3],79.5%
same,"viability, T/C",[4],41.6%
same,"viability, T/C",[5],24.5%
same,"viability, T/C",[6],18.5%
same,"viability, T/C",[7],132%
same,"viability, T/C",[8],122%
same,"viability, T/C",[9],80.6%
same,"viability, T/C",[10],43.2%
same,"viability, T/C",[11],29.2%
same,"viability, T/C",[12],19.7%
same,"viability, T/C",[13],138%
same,"viability, T/C",[14],113%
same,"viability, T/C",[15],78.5%
same,"viability, T/C",[16],47.4%
same,"viability, T/C",[17],31.2%
same,"viability, T/C",[18],20.9%
same,"viability, T/C",[19],144%
same,"viability, T/C",[20],122%
same,"viability, T/C",[21],79.3%
same,"viability, T/C",[22],52.2%
same,"viability, T/C",[23],38.8%
same,"viability, T/C",[24],26.5%
same,"viability, T/C",[25],161%
same,"viability, T/C",[26],129%
same,"viability, T/C",[27],87.5%
same,"viability, T/C",[28],61.5%
same,"viability, T/C",[29],46.5%
same,"viability, T/C",[30],32.7%

# — PubChem BioAssay AID2060342 (Molecular Pharmacology Branch, DTP, NCI, 2025)
